Assay results taken from patent US12265087B2, “Olfactory receptor as microglia marker and use thereof” (DAEGU GYEONGBUK INSTITUTE OF SCIENCE AND TECHNOLOGY, priority 2019, dated 2025).

Key:
Olfr110 = assay: Immunostaining of Olfr110 expression after treatment; type: cell-based, mouse
Protocol: Subsequently, cells were washed in PBS, and fixed with 4% paraformaldehyde (#6148; Sigma Aldrich) for 5 minutes. The cells were then incubated in PBS containing 4% normal horse serum (#008-000-121; Jackson ImmunoResearch) and 0.1% TWEEN® 20 (#P9416; Sigma-Aldrich) at room temperature for 1 hour. Afterward, the cells were […] at 4° C. overnight with primary antibodies listed below. The antibodies are as follows: Olfr110 (rabbit-anti-Olfr110; 1:10,000; #ab177327; Abcam), Iba-1 (goat-anti-Iba-1; 1:1,000; #ab5076; Abcam), and GFAP (mouse-anti-GFAP; 1:1,000; #556330; BD Biosciences). Samples were incubated in a PBS solution containing 0.1% TWEEN® 20 (#P9416; Sigma-Aldrich) with secondary antibodies at room temperature for 1 hour. The secondary antibodies are as follows: Cy3-conjugated donkey anti-rabbit IgG (1:1,000; #711-165-152; Jackson ImmunoResearch), Alexa488-conjugated donkey anti-goat IgG (1:1,000; #705-545-147; Jackson ImmunoResearch), and Alexa488-conjugated donkey anti-mouse IgG (1:1,000; #715-545-150; Jackson ImmunoResearch). Afterward, the cells were mounted with a Vectashield fluorescent material containing DAPI (#H-1200; Vector Laboratories), and images were obtained using a confocal laser scanning microscope, LSM 700, and the ZEN software (Zeiss). […]

primary microglia = assay: cAMP ELISA in primary microglia; type: cell-based, mouse; conditions: 2-PF 0, 100, 500 μM
Protocol: Primary microglia were seeded in 48-well plates (2×10^5 cells/well) and treated with 30 μM forskolin (#F3917, Sigma Aldrich) or 2-PF (10, 100, 500 μM) for 30 minutes. To confirm the effect of an inhibitor, 1 mM of S Q22536 (#17318-31-9; Calbiochem) was pretreated first for 30 minutes. The cells were lysed in 0.1 M of HCl with 1% Triton X 100 for 10 minutes, the lysate was centrifuged at 600×g for 2 minutes. The resulting supernatant was directly used for cAMP analysis with a cAMP ELISA kit (Enzo Life Science) according to the manufacturer's protocol. An optical density at 405 nm was measured using a VersaMax microplate reader (Molecular Devices).

[1] = system: Hana3A cells expressing Olfr110; assay: Boyden chamber chemotaxis assay, Hana3A cells expressing Olfr110; type: cell-based; conditions: 2-PF 10, 100 and 1000 μM
Protocol: Chemotaxis was measured using a multi-well Boyden chamber. More specifically, a polycarbonate filter (8 μm pore; #101-8; Neuroprobe) was coated with […] fibronectin (Sigma-Aldrich) in PBS for 2 hours, and the coated filter was installed in a Boyden chamber. In addition, the bottom side of a plate was filled with serum-free DMEM containing 2-PF or a culture supernatant. Subsequently, microglia or Hana3A cells were transfected with an OR construct, and then suspended in serum-free DMEM. The microglia were kept at 37° C. for 4 hours, and the Hana3A cells for 8 hours. Cells that migrated to the bottom surface were fixed with 4% PFA, and stained with hematoxylin for 10 minutes. The migrated cells were counted under a light microscope in five randomly selected fixed […] fields (200×) using a scored eyepiece. A chemotaxis index was defined as the migrated cell number normalized against the untreated group.

microglia [2] = assay: GFP intensity / morphology of microglia in CX3CR1 GFP/+ mice; type: in vivo, mouse; conditions: 2-PF treated CX3CR1 GFP/+ mice
Protocol: To analyze a morphological change in microglia activation, 9-week-old CX3CR1^GFP/+ mice were used. Two hours after an IP containing or not containing 2-PF was injected into two mice, brain sections were collected by cryosection. A 40-μm-thick brain tissue fragment was prepared by […], and a GFP signal of microglia was measured using a 40× magnification confocal microscope. A GFP-pixel signal of microglia was analyzed using Zeiss ZEN Software (Zeiss).

microglia [3] = assay: Fura-2/AM calcium imaging of microglia; type: cell-based, mouse; conditions: 2-PF 100, 300, 1000 μM
Protocol: Twenty-four hours after newly isolated microglia were mounted on poly-D-lysine-coated 18-mm aperture microscope cover glasses (#0111580; Marienfeld), the microglia were incubated in a superfusion chamber for 30 minutes. The chamber contained 4 μM of Fura-2/AM (Ca^2+-sensitive fluorescent dye; #F1221; Thermo Fisher Scientific) in Ringer's solution (115 mM NaCl, 2.5 mM KCl, 1 mM CaCl2, 1.5 mM MgCl2, 4.5 mM HEPES, pH 7.4) filtered through a filter with a 0.22-μm pore. After calcium staining culture, the chamber was placed under an inverted microscope and washed with Ringer's solution for 20 minutes prior to […] treatment. Here, a flow rate of the solution is 12 ml/min. Subsequently, primary microglia were treated with 300 μM ATP (#A2383; Sigma Aldrich) for 5 seconds. After washing for 5 minutes, the primary microglia were treated with a 100 μM 2-PF solution for 5 seconds. This step was accomplished with two different concentrations (300 and 1000 μM) of 2-PF solution. Finally, the microglia were treated with a 300 μM ATP solution for 5 seconds. An emitted fluorescent material was photographed every 2 seconds using a CCD camera. Pseudo-color images were converted using fractional fluorescence changes (ΔF/F, Δ[Ca^2+]i). In addition, these images show changes in intracellular calcium ions. […]

`CCCCCc1ccco1` [2-PF, 2-pentylfuran] was tested, and the Olfr110 protein level (Olfr110) was “significantly increases”, the cAMP concentration (primary microglia) was “increased by 2-PF treatment in a concentration dependent manner” and the “mobility of Olfr110 cells (chemotaxis assay)” value [1] was “increased in mobility in a concentration-dependent manner”. The “intensity of GFP expression of microglia” value (microglia [2]) was “highly increased” and the “intracellular calcium ion levels” value (microglia [3]) was “increased according to an injection amount”.
